Experimental data: patent EP0139627A1, “Process for the preparation of 5,10-dihydro-1H-dibenzo [B,E] [1,4] diazepin-11-ones substituted in position 5” (ARZNEIMITTELWERK DRESDEN GmbH, priority 1983, dated 1985)
Read-outs that look alike come from different tables or passages of the source.

Columns and labels:
[1] = system: Größe der Pupille; settings: mouse, in vivo, po
Source text: (§1) Die Wirkung der Substanzen auf die Größe der Pupille wurde an weiblichen Mäusen im Gewicht zwischen 18 und 23 Gramm nach der Versuchsordnung von R.Pulewka, Exp.Pathol. […] 30, 60, 90, 120, 180 und 240 Minuten nach oraler Präparatgabe wurde die Pupillenweite bestimmt und die x-fache Veränderung zum Ausgangswert berechnet. Als ED3-fach gilt die Dosis, bei der eine dreifache Pupillenerweiterung im Vergleich zum Ausgangswert auftritt.

[2] = system: streßinduzierten Magenulzera; experiment: Inhibition of stress-induced gastric ulcers (immobilisation ulcer, method of Brodie); assay type: in vivo, Ratten; settings: Rattus norvegicus, read-out: Immobilisationsulkus ED50
Source text: Die Hemmwirkung auf die Bildung von streßinduzierten Magenulzera wurde nach der Methode von D.A.Brodie, Gastroenterolody, 38 (1960), 50, an weiblichen Ratten im Gewicht von 150 - 180 Gramm vom VEB Versuchstierproduktion Schönwalde bestimmt. Die Nahrungskarenz vor Versuchsbeginn betrug 48 Stunden, bei Wasser ad libitum. Die Testsubstanzen wurden unmittelbar vor Versuchsbeginn oral, mittels Schlundsonde appliziert. Die Immobilisation erfolgte mittels Gipsbinden über 18 Stunden. Während der Versuchsdauer war die Raumtemperatur konstant 20° C. Nach Versuchsende wurden die Tiere durch Äther getötet, die Mägen entnommen, entlang der kleinen Kurvatur aufgeschnitten und die Drüsenschleimhautdefekte nach Zahl und Länge im Vergleich zur Kontrollgruppe beurteilt. Für die statistische Berechnung diente die Probit-Regressions-Analyse.

[3] = in vivo; settings: mouse, male and female mice, oral, read-out: akute Toxizität LD50
Source text: Die akute Toxizität wurde an jeweils 5 männlichen und 5 weiblichen Mäusen im Gewicht von 18 - 23 Gramm pro dosi bestimmt. Die Applikation der Prüfsubstanzen erfolgte oral. Die Berechnung der LD50 wurde nach Litchfield und Wilcoxon durchgeführt.

[4] = system: phenylbutazoninduzierte Magenulzera; experiment: Inhibition of phenylbutazone-induced gastric ulcers (model of Beattie et al.); assay type: in vivo, Ratten; settings: Rattus norvegicus, 48 h; female rats, oral dose half an hour before each s.c. injection of 150 mg/kg Phenylbutazon on two days; read-out: Phenylbutazonulkus ED50
Procedure: Die Hemmwirkung der Verbindungen auf phenylbutazoninduzierte Magenulzera wurde in Anlehnung an das Modell von Beattie und Mitarbeiter, Arzneimittelforschung, 29, (1979), 1812 ermittelt. Für die Untersuchung kamen weibliche Ratten der hauseigenen Zucht im Gewicht von 150 - 180 Gramm zur Anwendung.
Die Nahrungskarenz vor Versuchsbeginn betrug 24 Stunden, bei Wasser ad libitum. Während des Versuchs wurden die Tiere im Klimaraum bei einer Temperatur zwischen 22° C und 23° C gehalten. Die Ratten erhielten zwei Tage hintereinander jeweils 7 Uhr morgens eine s.c. Injektion von 150 mg/kg Phenylbutazon und die Tötung erfolgte sechs Stunden nach der letzten Injektion durch Nackenschlag. Die herauspräparierten Mägen wurden entlang der kleinen Kurvatur aufgeschnitten und die Schleimhautdefekte nach Zahl und Länge beurteilt. Die Applikation der Prüfsubstanzen erfolgte oral, eine halbe Stunde vor jeder Phenylbutazoninjektion.

[5] = system: Größe der Pupille; experiment: Effect on pupil size (mydriasis, method of Pulewka); settings: female mice, oral; dose that widens the pupil three-fold versus baseline
Source text: as §1

[6] = female rats, oral dose immediately before start, immobilisation for 18 hours, probit regression analysis

Compound	Pupillomotorik ED3-fach [1]	ED50 [2, 6] [mg/kg]	LD50 [3] [mg/kg]	ED50 [4] [mg/kg]	Pupillomotorik ED3-fach [5] [mg/kg]	ED50 ([2]; po, 18 h) [mg/kg]
CN1C(=O)c2ccccc2N(C(=O)CN2CCN(C(=O)c3ccco3)CC2)c2ccc(Cl)cc21 [D, 8-Chlor-5, 10-dihydro-5-(2-{4-[(2-furanyl)-carbonyl]-1-piperazinyl}-acetyl)-10-methyl-11H-dibenzolbenzo[b,e][1,4]-diazepin-11-on]	250 mg/kg	26	1600	36		
CN1C(=O)c2ccccc2N(C(=O)CN(CCO)CCO)c2ccccc21 [E, 5,10-Dihydro-10-methyl-5-[bis-{2-hydroxyäthyl)-amino-acetyl]-11H-dibenzo[b,e] [1,4]diazepin-11-on]	95 mg/kg	27	1000	22		
O=C1Nc2cc(Cl)ccc2N(C(=O)CN(CCO)CCO)c2ccccc21 [A, 8-Chlor-5,10-dihydro-5-[bis-(2-hydroxyäthyl)amino-acetyl]-11H-dibenzo[b,e] [1,4]diazepin-11-on]	30 mg/kg	6	2000	5		
O=C1Nc2ccccc2N(C(=O)CN2CCN(C(=O)c3ccco3)CC2)c2ccccc21 [C, 5,10-Dihydro-5-(2-{4-[(2-furanyl)-carbonyl] -1-piperazinyl}-acetyl)-11H-dibenzo[b,e] [1,4]diazepin-11-on]	67 mg/kg	14	2000	20		
O=C1Nc2ccccc2N(C(=O)CN(CCO)CCO)c2ccccc21 [B, 5,10-Dihydro-5-[bis-(2-hydroxyäthyl) -aminoacetyl]-11H-dibenzo[b,e][1,4] diazepin-11-on]	4 mg/kg	1	2000	1.6		
CN1CCN(CC(=O)N2c3ccccc3C(=O)Nc3cccnc32)CC1 [Pi renzepin, Pirenzepin, reference compound]		11		18	30	
CN1C2CCC1CC(OC(=O)C(CO)c1ccccc1)C2 (racemic) [Atropin, reference compound]	0,8 mg/kg					0.6
